From US6166000A, “Methods for preparation and use of 1α,24(S)-Dihydroxy vitamin . D.sub2” (priority 1995, dated 2000)

What was measured:
[1] = biological target: T1, vitamin D receptor (VDR) (Homo sapiens, UniProt P11473); assay: Vitamin D-dependent transcriptional activation: growth hormone production in COS-1 cells co-transfected with VDR plasmid and VDRE-GH plasmid; type: cell-based; settings: in words
T1 sequence (P11473 1-427): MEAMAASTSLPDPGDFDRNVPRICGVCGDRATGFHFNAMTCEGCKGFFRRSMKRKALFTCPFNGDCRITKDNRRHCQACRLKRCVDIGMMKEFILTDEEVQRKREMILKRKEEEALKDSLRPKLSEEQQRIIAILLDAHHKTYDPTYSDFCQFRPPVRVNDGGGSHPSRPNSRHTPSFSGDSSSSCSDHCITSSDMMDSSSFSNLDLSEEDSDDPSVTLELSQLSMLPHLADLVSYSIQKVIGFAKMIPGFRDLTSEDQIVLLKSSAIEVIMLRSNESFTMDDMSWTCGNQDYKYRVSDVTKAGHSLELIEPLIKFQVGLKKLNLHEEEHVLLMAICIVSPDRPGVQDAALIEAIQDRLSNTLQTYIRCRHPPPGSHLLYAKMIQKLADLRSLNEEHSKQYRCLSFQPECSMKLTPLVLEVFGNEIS
Experimental: The biological activity in vitro of chemically synthesized 1α,24(S)-(OH)2 D2 and 1α,24(R)-(OH)2 D2 was measured using a vitamin D-dependent transcriptional activation model system in which a vitamin D receptor (VDR)-expressing plasmid pSG5-hVDR1/3and a plasmid p(CT4)^4 TKGH containing a Growth Hormone (GH)-gene, under the control of a vitamin D-responsive element (VDRE) were co-transfected into Green monkey kidney, COS-1 cells. DNA's for these two vectors were supplied by Dr. Mark Haussler, Department of Biochemistry, University of Arizona, Tucson, Ariz.
Tranfected cells were incubated with vitamin D metabolites and growth hormone production was measured.

[2] = biological target: T2, vitamin D serum binding protein (DBP) (Rattus norvegicus, UniProt P04276); assay: Affinity for vitamin D serum binding protein using vitamin D deficient rat serum; settings: in words
T2 sequence (P04276 17-476): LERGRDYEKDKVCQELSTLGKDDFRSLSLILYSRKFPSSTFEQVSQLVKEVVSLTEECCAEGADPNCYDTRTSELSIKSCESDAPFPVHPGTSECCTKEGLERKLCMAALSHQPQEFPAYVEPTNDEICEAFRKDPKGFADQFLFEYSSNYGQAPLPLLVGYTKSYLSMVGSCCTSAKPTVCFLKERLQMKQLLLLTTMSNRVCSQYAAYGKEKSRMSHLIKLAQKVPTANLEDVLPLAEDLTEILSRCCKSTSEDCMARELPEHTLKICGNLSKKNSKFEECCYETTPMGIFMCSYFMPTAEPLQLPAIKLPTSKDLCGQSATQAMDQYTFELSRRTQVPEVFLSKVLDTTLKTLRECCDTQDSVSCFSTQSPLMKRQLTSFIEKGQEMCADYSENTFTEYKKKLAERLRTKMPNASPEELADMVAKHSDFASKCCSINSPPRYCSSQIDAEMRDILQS
Excerpt: In addition, the weak binding by the DBP was indicative of more rapid clearance, allowing for low toxicity.

[3] = tested on: Hep 3B cells; assay: Metabolite production in Hep 3B cells incubated with 1α-OH-D2; type: in vitro ADME, human; settings: Experiment 2, photodiode array spectrophotometry
Experimental: Substantially pure 1α-(OH)D2 was obtained from Bone Care International, Inc. of Madison, Wis. The 1α-(OH)D2 was cultured for 48 hours with cells derived from a human hepatoma, Hep 3B, in medium devoid of fetal calf serum using known methods in the art.
Lipid extracts of the combined medium and cells were generated by known methods in the art and were subjected to high pressure liquid chromatography (HPLC) on Zorbax-S1L developed with hexane/isopropanol/methanol (91:7:2). The putative 1α,24(?)-(OH)2 D2 metabolite eluted between the parent 1α-(OH)D2 and standard 1α,25-(OH)2 D2 (also obtained from Bone Care International, Inc. of Madison, Wis.). (As used herein, the term "1α,24(?)-(OH)2 D2 " is meant to indicate that the epimeric form has not been identified.) The 1α,24(?)-(OH)2 D2 was further purified by this HPLC system before the metabolite's identification was undertaken using mass spectrometry analysis.
Hep 3B cells were incubated with 1α-OH-D2, as described above, at final concentrations of 1, 10, or 100 nM (Experiment 1), and 1 or 10 μM (Experiment 2) and 1α,24(S)-(OH)2 D2 was extracted and purified. The 1α,24(S)-(OH)2 D2 and 1α,25-(OH)2 D2 metabolites were quantitated by recovered radiolabel (Experiment 1) or by photodiode array spectrophotometry (Experiment 2).

[4] = Blood metabolite levels in osteoporotic women administered 1α-OH-D2; type: in vivo; settings: one day after a single 2 μg dose of 1α-OH-D2; human females
Experimental: An increase in the production of 1α,24(S)-(OH)2 D2 relative to 1α,25-(OH)2 D2 has also been observed by the present inventors in human females who received 1α-OH-D2 as part of an investigation of that drug for the treatment of osteoporosis. Following either a single dose of 2 μg of 1α-OH-D2 or daily doses of 8 μg/day for one week, blood was collected and analyzed for the metabolites 1α,24(S)-(OH)2 D2 and 1α,25-(OH)2 D2. Lipid was extracted from the blood, and the metabolites were purified by HPLC using standard methods and quantified with the radioreceptor assay produced by Incstar (Stillwater, Minn.). One day after a single 2 μg dose, the level of 1α,24(S)-(OH)2 D2 was undetectable with the 1α,25-(OH)2 D2 level being approximately 11 pg/ml. In contrast, one day following the last dose of 8 μg, the level of 1α,24(S)-(OH)2 D2 averaged 9 pg/ml with the 1α,25-(OH)2 D2 level averaging 30 pg/ml.

activity in the transcriptional activation system compared with 1α,24(R)-(OH)2 D2 [1]: significantly more activity
binding affinity for the vitamin D serum binding protein [2]: more weakly than does 1,25-(OH)2 D3
Rate of Production ([3]; substrate 1α-OH-D2 1 μM): 4.9 pmol per 10^6 cells/day
Rate of Production ([3]; substrate 1α-OH-D2 10 μM): 59 pmol per 10^6 cells/day
blood level of metabolite [4]: undetectable
SMILES: C=C1/C(=C\C=C2/CCC[C@]3(C)[C@@H]([C@H](C)/C=C/[C@@](C)(O)C(C)C)CC[C@@H]23)C[C@@H](O)C[C@@H]1O [1α,24(S)-(OH)2 D2, 1α,24(S)-dihydroxy Vitamin D2]
